Experimental data published in article PMC11219871, “Epigenetic-based differentiation therapy for Acute Myeloid Leukemia” (Nature Communications, 2024).

Experiments:
Assay in all cases: Epigenetic panel (BPS Bioscience)
Assay type in all cases: biochemical
[1] = biological target: T1, JMJD2D (Homo sapiens, UniProt Q6B0I6)
T1 construct: purchased BPS Bioscience; Eurofins (HDAC4, 5, 7-11)
From the text: (§1) The selectivity of CM-444 and CM-1758 against other epigenetic targets, including histone demethylase (JMJD2A, JMJD2B, JMJD2C, JMJD2D, JMJD2E, JMJD3, JMJD1A, LSD1, Jarid1A, Jarid1B, Jarid1C, FBXL10, FBXL11, JHDM1D, JMJD1B, PHF8, LSD2 and UTX); histone acetyltransferases (GCN5, P300); histone methyltransferases (G9a, GLP, MLL1, SET7/9, SUV39H1, SUV39H2, PRMT1, PRMT3, PRMT4, PRMT5, PRMT6, PRMT8, PRMT9, NSD1, NSD2, EZH1, EZH2, SETDB1, SETD2, SET8, SUV4-20H1, SMYD2, SMYD3, DOT1L, EZH2 (A677G), EZH2 (A677G), EZH2 (A738T), EZH2 (Y641S), EZH2 (P132S), EZH2 (Y641C), EZH2 (Y641F), EZH2 (Y641H), EZH2 (Y641N)); bromodomains (ATAD2B, ATAD2A, BRD1, BRD9, BPTF/FALZ, CeCR2, BRPF3, BRD3 (BD1 + BD2), BAZ2B, WDR9, TAF1 (BD2), TAF1L (BD2), TAF1L (BD1 + BD2), BRD2 (BD1), BRD2 (BD2), BRD2 (BD1 + BD2), BRD3 (BD1), BRD3 (BD2), BRD4 (BD1), BRD4 (BD2), BRD4 (BD1 + BD2), BRDT (BD1), BRDT (BD1 + BD2), CREBBP, SMARCA2A, SMARCA4/BRG1); DNA methyltranferases (DNMT1, DNMT3A/3L and DNMT3B/3L), and sirtuin histone deacetylases (SIRT1, SIRT2, SIRT3, SIRT5 and SIRT6), were determined by BPS Bioscience (http://www.bpsbioscience.com/index.ph). Binding experiments were performed in duplicate at a concentration of 10 μM.

[2] = biological target: T2, MLL1 (Homo sapiens, UniProt Q03164)
T2 construct: purchased BPS Bioscience; Eurofins (HDAC4, 5, 7-11)
From the text: as §1

[3] = biological target: T3, SIRT3 (Homo sapiens, UniProt Q9NTG7)
T3 construct: purchased BPS Bioscience; Eurofins (HDAC4, 5, 7-11)
T3 sequence (Q9NTG7 whole entry): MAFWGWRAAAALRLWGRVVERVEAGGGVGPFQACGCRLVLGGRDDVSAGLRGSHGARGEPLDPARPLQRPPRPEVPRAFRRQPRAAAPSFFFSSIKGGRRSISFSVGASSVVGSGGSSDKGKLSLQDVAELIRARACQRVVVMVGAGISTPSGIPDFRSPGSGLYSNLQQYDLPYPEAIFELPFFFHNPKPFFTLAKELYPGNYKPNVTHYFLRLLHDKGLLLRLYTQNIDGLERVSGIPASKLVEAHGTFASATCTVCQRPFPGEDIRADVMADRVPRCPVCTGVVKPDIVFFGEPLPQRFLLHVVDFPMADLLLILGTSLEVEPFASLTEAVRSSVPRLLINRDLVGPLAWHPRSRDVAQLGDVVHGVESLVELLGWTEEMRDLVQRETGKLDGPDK
From the text: as §1

[4] = biological target: T4, PRMT9 (Homo sapiens, UniProt Q6P2P2); settings: for inhibition at 10 µM: read-out: % of inhibition
T4 sequence (Q6P2P2 1-845): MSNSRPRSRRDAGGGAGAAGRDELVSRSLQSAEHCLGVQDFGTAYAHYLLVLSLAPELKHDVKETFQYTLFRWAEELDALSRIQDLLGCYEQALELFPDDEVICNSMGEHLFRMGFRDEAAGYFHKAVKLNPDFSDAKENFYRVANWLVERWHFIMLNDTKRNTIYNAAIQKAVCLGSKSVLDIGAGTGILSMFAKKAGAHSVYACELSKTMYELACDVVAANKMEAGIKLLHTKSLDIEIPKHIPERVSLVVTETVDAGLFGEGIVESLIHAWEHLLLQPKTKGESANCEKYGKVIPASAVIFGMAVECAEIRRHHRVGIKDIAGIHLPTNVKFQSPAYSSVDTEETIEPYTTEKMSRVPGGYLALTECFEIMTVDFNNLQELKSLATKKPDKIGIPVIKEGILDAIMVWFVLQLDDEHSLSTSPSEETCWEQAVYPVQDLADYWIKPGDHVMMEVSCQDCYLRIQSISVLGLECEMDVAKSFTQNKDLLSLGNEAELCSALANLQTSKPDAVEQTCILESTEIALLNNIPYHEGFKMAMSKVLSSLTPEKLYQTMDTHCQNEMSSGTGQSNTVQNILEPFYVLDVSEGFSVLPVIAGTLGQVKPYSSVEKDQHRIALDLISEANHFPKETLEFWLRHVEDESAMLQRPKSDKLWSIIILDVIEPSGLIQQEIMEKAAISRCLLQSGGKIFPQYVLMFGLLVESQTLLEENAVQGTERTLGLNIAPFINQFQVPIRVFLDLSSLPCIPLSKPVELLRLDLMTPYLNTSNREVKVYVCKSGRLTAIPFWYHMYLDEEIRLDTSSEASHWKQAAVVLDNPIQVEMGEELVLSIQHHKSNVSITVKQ
From the text: as §1

[5] = biological target: T5, SET7/9 (Homo sapiens, UniProt Q8WTS6)
T5 construct: purchased BPS Bioscience; Eurofins (HDAC4, 5, 7-11)
From the text: as §1

[6] = biological target: T6, P300 (Homo sapiens, UniProt Q09472)
T6 construct: purchased BPS Bioscience; Eurofins (HDAC4, 5, 7-11)
From the text: as §1

[7] = biological target: T7, SUV39H1 (Homo sapiens, UniProt O43463)
T7 construct: purchased BPS Bioscience; Eurofins (HDAC4, 5, 7-11)
T7 sequence (O43463 whole entry): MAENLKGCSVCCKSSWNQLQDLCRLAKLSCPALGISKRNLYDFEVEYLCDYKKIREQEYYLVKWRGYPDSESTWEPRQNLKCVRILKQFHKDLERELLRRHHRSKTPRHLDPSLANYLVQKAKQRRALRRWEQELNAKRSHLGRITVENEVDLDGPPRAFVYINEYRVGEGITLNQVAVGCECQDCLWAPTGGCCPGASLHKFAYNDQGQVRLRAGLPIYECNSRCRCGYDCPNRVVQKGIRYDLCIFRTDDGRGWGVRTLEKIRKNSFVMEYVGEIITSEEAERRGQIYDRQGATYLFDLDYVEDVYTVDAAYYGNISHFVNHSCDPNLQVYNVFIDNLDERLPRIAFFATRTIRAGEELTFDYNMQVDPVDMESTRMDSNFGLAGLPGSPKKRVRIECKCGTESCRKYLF
From the text: as §1

[8] = biological target: T8, DNMT3A/3L (Homo sapiens, UniProt Q9Y6K1)
T8 construct: purchased BPS Bioscience (contracted assay service)
T8 sequence (Q9Y6K1 whole entry, looked up): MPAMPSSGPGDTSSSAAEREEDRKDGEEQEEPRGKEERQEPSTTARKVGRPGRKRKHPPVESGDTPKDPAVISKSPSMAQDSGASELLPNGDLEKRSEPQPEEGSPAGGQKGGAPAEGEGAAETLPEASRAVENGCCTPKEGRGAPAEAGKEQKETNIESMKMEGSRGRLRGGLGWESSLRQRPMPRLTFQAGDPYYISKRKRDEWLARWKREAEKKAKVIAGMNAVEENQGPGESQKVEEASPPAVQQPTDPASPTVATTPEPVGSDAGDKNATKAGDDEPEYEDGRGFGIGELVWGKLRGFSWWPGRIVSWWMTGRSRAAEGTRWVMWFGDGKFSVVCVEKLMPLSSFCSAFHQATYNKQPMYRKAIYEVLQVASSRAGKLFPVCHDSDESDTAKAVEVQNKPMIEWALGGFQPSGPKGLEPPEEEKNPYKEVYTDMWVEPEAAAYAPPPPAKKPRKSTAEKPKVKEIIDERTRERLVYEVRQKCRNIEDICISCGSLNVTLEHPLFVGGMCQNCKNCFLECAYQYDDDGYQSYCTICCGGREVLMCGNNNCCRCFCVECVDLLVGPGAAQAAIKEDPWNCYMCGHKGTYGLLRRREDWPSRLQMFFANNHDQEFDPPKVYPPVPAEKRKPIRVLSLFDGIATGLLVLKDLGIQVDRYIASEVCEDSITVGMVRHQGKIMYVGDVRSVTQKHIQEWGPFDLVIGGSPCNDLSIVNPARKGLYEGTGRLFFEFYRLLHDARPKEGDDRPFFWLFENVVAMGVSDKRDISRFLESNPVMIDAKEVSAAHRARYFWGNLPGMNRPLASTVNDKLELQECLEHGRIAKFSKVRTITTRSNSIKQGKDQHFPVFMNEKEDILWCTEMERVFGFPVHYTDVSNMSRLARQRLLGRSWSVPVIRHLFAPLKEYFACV
T8 sequence (Q9UJW3 whole entry partner): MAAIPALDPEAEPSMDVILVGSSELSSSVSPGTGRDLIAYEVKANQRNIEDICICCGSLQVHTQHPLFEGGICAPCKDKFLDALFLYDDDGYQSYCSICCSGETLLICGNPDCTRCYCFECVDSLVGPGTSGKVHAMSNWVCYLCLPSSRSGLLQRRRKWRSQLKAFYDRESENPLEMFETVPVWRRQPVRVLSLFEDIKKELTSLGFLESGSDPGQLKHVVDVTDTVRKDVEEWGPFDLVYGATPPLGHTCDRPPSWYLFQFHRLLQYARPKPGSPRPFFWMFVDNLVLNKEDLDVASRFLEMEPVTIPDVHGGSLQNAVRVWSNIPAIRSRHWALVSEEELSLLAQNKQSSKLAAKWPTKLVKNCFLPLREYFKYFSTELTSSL
From the text: as §1

[9] = biological target: T9, LSD2 (Homo sapiens, UniProt Q8NB78)
T9 construct: purchased BPS Bioscience; Eurofins (HDAC4, 5, 7-11)
From the text: as §1

[10] = biological target: T10, EZH2 (Y641S) (Homo sapiens, UniProt Q15910, Y641S)
T10 construct: purchased BPS Bioscience; Eurofins (HDAC4, 5, 7-11)
From the text: as §1

[11] = biological target: T11, EZH1 (Homo sapiens, UniProt Q92800)
T11 construct: purchased BPS Bioscience; Eurofins (HDAC4, 5, 7-11)
T11 sequence (Q92800 whole entry): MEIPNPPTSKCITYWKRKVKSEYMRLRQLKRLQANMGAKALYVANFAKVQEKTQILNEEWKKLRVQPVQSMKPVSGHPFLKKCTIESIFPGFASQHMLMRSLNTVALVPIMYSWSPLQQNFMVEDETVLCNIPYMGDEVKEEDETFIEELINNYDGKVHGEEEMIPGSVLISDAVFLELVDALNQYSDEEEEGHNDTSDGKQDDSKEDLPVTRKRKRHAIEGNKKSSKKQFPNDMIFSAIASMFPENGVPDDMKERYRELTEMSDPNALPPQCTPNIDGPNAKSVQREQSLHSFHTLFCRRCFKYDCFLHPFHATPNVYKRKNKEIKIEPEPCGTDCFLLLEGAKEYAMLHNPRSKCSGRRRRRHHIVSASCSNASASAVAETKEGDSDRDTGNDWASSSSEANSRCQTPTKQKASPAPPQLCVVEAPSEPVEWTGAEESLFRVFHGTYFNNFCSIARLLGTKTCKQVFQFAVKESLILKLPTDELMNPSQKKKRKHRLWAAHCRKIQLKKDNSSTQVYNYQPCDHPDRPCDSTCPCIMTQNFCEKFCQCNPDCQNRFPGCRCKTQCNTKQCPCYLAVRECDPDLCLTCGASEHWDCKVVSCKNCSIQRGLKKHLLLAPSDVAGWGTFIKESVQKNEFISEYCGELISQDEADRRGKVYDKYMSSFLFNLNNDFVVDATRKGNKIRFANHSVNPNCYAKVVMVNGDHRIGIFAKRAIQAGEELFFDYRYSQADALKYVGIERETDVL
T11 sequence (O75530 whole entry partner): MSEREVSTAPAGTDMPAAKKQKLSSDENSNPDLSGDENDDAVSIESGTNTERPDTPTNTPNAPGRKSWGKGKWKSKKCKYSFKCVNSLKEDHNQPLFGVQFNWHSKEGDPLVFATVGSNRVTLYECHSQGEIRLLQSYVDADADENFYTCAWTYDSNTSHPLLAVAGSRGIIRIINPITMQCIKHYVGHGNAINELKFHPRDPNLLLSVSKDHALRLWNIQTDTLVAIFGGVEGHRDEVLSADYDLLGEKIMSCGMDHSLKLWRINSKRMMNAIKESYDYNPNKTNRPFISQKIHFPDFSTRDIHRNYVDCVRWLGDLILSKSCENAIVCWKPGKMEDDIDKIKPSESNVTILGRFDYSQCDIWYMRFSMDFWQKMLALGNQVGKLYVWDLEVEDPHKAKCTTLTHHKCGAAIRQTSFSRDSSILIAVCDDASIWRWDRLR
T11 sequence (Q15022 whole entry partner): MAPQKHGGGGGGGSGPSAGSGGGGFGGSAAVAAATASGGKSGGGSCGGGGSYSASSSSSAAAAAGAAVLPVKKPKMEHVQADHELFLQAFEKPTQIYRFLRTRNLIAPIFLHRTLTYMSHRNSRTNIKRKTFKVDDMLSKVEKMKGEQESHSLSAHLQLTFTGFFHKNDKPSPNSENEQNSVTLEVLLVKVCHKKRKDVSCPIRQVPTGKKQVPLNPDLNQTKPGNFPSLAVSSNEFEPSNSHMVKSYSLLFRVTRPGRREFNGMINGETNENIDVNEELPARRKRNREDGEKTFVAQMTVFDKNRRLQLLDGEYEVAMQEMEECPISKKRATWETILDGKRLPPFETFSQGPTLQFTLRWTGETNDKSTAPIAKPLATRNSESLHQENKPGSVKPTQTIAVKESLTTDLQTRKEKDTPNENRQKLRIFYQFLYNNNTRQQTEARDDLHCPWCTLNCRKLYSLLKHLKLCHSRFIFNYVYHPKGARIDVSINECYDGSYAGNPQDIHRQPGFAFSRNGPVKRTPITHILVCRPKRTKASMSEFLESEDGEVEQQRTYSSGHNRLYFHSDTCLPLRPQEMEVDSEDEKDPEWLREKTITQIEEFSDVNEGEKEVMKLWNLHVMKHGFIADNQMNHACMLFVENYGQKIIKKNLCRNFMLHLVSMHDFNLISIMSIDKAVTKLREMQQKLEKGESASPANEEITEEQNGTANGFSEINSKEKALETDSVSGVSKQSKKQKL
T11 sequence (Q09028 whole entry partner): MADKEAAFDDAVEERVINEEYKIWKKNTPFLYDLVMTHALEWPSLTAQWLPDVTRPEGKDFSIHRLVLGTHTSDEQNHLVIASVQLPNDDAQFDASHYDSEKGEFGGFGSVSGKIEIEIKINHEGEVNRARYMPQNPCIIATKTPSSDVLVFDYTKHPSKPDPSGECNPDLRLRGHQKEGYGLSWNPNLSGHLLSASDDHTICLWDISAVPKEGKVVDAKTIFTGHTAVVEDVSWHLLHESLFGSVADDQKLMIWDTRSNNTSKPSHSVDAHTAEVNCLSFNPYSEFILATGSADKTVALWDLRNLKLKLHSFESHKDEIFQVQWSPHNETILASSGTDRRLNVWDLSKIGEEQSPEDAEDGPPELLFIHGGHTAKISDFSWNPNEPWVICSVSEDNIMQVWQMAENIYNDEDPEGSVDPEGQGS
T11 sequence (Q6ZN18 whole entry partner): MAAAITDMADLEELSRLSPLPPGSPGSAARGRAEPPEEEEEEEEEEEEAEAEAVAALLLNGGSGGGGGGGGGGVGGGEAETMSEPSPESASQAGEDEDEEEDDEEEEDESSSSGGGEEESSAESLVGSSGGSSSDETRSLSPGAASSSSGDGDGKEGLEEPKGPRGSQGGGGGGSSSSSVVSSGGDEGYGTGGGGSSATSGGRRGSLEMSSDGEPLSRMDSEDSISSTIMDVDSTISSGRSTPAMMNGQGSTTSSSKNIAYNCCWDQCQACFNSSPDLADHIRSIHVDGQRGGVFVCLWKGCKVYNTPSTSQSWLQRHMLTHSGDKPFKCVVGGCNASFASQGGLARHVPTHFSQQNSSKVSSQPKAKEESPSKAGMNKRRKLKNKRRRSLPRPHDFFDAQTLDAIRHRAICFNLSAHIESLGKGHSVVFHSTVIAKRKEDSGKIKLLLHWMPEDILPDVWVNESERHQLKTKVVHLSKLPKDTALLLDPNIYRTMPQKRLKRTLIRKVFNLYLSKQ
From the text: as §1

[12] = biological target: T12, EZH2 (Y641F) (Homo sapiens, UniProt Q15910, Y641F)
T12 construct: purchased BPS Bioscience; Eurofins (HDAC4, 5, 7-11)
From the text: as §1

[13] = biological target: T13, PRMT5 (Homo sapiens, UniProt O14744)
T13 construct: purchased BPS Bioscience; Eurofins (HDAC4, 5, 7-11)
From the text: as §1

[14] = biological target: T14, JMJD3 (Homo sapiens, UniProt O15054)
T14 construct: purchased BPS Bioscience; Eurofins (HDAC4, 5, 7-11)
From the text: as §1

[15] = biological target: T15, JMJD1B (Homo sapiens, UniProt Q7LBC6)
T15 construct: purchased BPS Bioscience; Eurofins (HDAC4, 5, 7-11)
From the text: as §1

[16] = biological target: T16, SIRT6 (Homo sapiens, UniProt Q8N6T7)
T16 construct: purchased BPS Bioscience; Eurofins (HDAC4, 5, 7-11)
From the text: as §1

[17] = biological target: T17, SMYD3 (Homo sapiens, UniProt Q9H7B4)
T17 construct: purchased BPS Bioscience; Eurofins (HDAC4, 5, 7-11)
From the text: as §1

[18] = biological target: T18, SIRT2 (Homo sapiens, UniProt Q8IXJ6)
T18 construct: purchased BPS Bioscience; Eurofins (HDAC4, 5, 7-11)
From the text: as §1

[19] = biological target: T19, PRMT3 (Homo sapiens, UniProt O60678)
T19 construct: purchased BPS Bioscience; Eurofins (HDAC4, 5, 7-11)
From the text: as §1

[20] = biological target: T20, SET8 (Homo sapiens, UniProt Q9NQR1)
T20 construct: purchased BPS Bioscience; Eurofins (HDAC4, 5, 7-11)
From the text: as §1

COc1cc2nc(-c3ccc(C)o3)cc(NCC3CCN(c4ncc(C(=O)NO)cn4)CC3)c2cc1OC [CM-444, 2-[4-[[[6,7-dimethoxy-2-(5-methyl-2-furyl)-4-quinolyl]amino]methyl]-1-piperidyl]pyrimidine-5-carbohydroxamic acid]
inhibition at 10 µM [1]: 5% | inhibition at 10 µM [2]: 0% | inhibition at 10 µM [3]: 0% | IC50 [4]: 19.2 µM | inhibition at 10 µM [4]: 76% | inhibition at 10 µM [5]: 0% | inhibition at 10 µM [6]: 10% | inhibition at 10 µM [7]: 1% | IC50 [8]: 1.8 µM | inhibition at 10 µM [8]: 92% | inhibition at 10 µM [9]: 21% | inhibition at 10 µM [10]: 4% | inhibition at 10 µM [11]: 9% | inhibition at 10 µM [12]: 0% | inhibition at 10 µM [13]: 0% | inhibition at 10 µM [14]: 21% | inhibition at 10 µM [15]: 6% | inhibition at 10 µM [16]: 15% | inhibition at 10 µM [17]: 35% | inhibition at 10 µM [18]: 14% | inhibition at 10 µM [19]: 0% | inhibition at 10 µM [20]: 4%

COc1cc2nc(-c3cc(C)oc3C)cc(NCC3CCN(c4ncc(C(=O)NO)cn4)CC3)c2cc1OC [CM-1758, 2-[4-[[[2-(2,5-dimethyl-3-furyl)-6,7-dimethoxy-4-quinolyl]amino]methyl] -1-piperidyl]pyrimidine-5-carbohydroxamic acid]
inhibition at 10 µM [1]: 0% | inhibition at 10 µM [2]: 1% | inhibition at 10 µM [3]: 9% | IC50 [4]: 22.7 µM | inhibition at 10 µM [4]: 52% | inhibition at 10 µM [5]: 19% | inhibition at 10 µM [6]: 0% | inhibition at 10 µM [7]: 1% | inhibition at 10 µM [8]: 44% | inhibition at 10 µM [9]: 22% | inhibition at 10 µM [10]: 24% | inhibition at 10 µM [11]: 0% | inhibition at 10 µM [12]: 1% | inhibition at 10 µM [13]: 7% | inhibition at 10 µM [14]: 20% | inhibition at 10 µM [15]: 11% | inhibition at 10 µM [16]: 4% | inhibition at 10 µM [17]: 21% | inhibition at 10 µM [18]: 0% | inhibition at 10 µM [19]: 0% | inhibition at 10 µM [20]: 9%
